In PubChem BioAssay (NCI):
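Growth conditions: 96-well plates. Treatment: test compound, 48 hours, 5 concentrations. Analysis: linear interpolation between bracketing concentrations; unreached endpoints set to highest concentration. Abbreviation: GI50, concentration required for 50% inhibition of growth. Definition used: TGI = concentration required for complete inhibition of growth.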

How the values were obtained:
Experiment in all cases: NCI-60 cell line screen, 48 h
[1] = system: COLO 205 colon
[2] = system: KM12 colon
[3] = system: MALME-3M melanoma
[4] = system: NCI-H522 lung
[5] = system: SK-OV-3 ovarian
[6] = system: SNB-75 CNS
[7] = system: SW-620 colon
[8] = system: UO-31 renal
[9] = system: HOP-62 NSCLC
[10] = system: MDA-MB-435

Compound	TGI [1] [µM]	TGI [2] [µM]	TGI [3] [µM]	TGI [4] [µM]	TGI [5] [µM]	TGI [6] [µM]	TGI [7] [µM]	TGI [8] [µM]	TGI [9] [µM]	GI50 [1] [µM]	GI50 [2] [µM]	GI50 [3] [µM]	GI50 [4] [µM]	GI50 [5] [µM]	GI50 [6] [µM]	GI50 [7] [µM]	GI50 [8] [µM]	GI50 [9] [µM]	GI50 [10] [µM]	TGI [10] [µM]
CCOC(=O)c1ccc(N2C(=O)/C(=C\OC)c3ccccc3C2=O)cc1	> 100	> 100	> 100	> 100	41.9	> 100	> 100	62.8	–	–	–	–	–	–	–	–	–	–	–	–
CC(C)(C)[C@H]1CO[C@]2(C)[C@@H]3C[C@@H]3C(=O)N12	> 100	> 100	> 100	> 100	> 100	> 100	> 100	> 100	> 100	–	–	–	–	–	–	–	–	–	–	–
N.N.NC(CS)C(=O)[O-].NC(CS)C(=O)[O-].[Pt+4] (stereo not drawn)	> 50	> 50	> 50	> 50	> 50	> 50	> 50	> 5	–	> 50	> 50	> 50	> 50	> 50	> 50	> 50	> 5	–	–	–
ON=C1CCC(c2ccccc2)CC1 (stereo not drawn)	> 100	> 100	> 100	> 100	> 100	> 100	> 100	> 100	> 100	–	–	–	–	–	–	–	–	–	–	–
c1ccc(N=C2c3ccccc3C3=NCCCN32)cc1	> 100	> 100	> 100	96.8	–	> 100	> 100	> 100	> 100	–	–	–	–	–	–	–	–	–	–	–
Cc1cc(C)nc(Nc2nc3ccc([N+](=O)[O-])cc3[nH]2)n1	> 100	> 100	> 100	> 100	–	–	> 100	> 100	> 100	–	–	–	–	–	–	–	–	–	–	–
COC(=O)Nc1nc2ccccc2c(=O)[nH]1	> 100	> 100	> 100	> 100	> 100	> 100	> 100	> 100	> 100	–	–	–	–	–	–	–	–	–	–	–
COc1cc2c(/C=C3/C(=O)Nc4ccccc43)c(Cl)n(Cc3ccccc3[N+](=O)[O-])c2cc1C	15.5	21.3	13.8	35.3	32.5	–	34.5	25.1	27.6	3.18	4.9	3.41	12.2	14.8	–	7.91	6.29	10.7	3.39	15.6
C[C@]12CC[C@@H]3c4ccc(O)cc4CC[C@H]3[C@@H]1CC[C@@H]2NS(=O)(=O)Cc1ccc(Cl)cc1	3.27	4.39	9.95	–	7.77	9.75	17.3	5.13	8.14	1.81	2.05	2.85	–	3.02	2.08	3.5	1.39	2.97	2.78	9.03
CC(=O)/C=C/c1ccc(C2CC(C)=Nc3c(ccc4c3C(=O)c3ccccc3C4=O)N2)cc1 (stereo not drawn)	> 100	> 23.6	> 100	> 100	> 100	> 100	> 100	> 100	> 100	–	–	–	–	–	–	–	–	–	–	–
O=C(O)C12C3CCCC1C2CC3 (stereo not drawn)	> 100	> 100	> 100	> 100	> 100	> 100	–	> 100	> 100	–	–	–	–	–	–	–	–	–	–	–
Nc1c(-c2nc3ccccc3[nH]2)sc(=S)n1-c1ccccc1	> 100	> 100	> 100	> 100	> 100	> 100	> 100	> 100	> 100	–	–	–	–	–	–	–	–	–	–	–
O=C(c1ccccc1)c1c(C(=O)c2ccccc2)c(-c2ccccc2)c2c(-c3ccccc3)sc(-c3ccccc3)c2c1-c1ccccc1	> 100	> 100	> 100	> 100	> 100	> 100	> 100	> 100	> 100	–	–	–	–	–	–	–	–	–	–	–
Nc1ccccc1C#C/C=C\C#Cc1ccc(Cl)cc1Cl	> 100	14.4	17.2	35.4	80.5	–	> 100	40	32.8	23.8	2.72	1.87	14.7	27.8	–	34.8	14.2	16.6	2.41	5.8
O=C(O)c1cc2c(cn1)[nH]c1ccccc12	> 100	> 100	> 100	> 100	> 100	> 100	> 100	> 100	> 100	–	–	–	–	–	–	–	–	–	–	–
CC(C(=O)Oc1ccc2ccccc2c1-c1c(O)ccc2ccccc12)c1ccccc1 (stereo not drawn)	33.4	26.1	34.8	–	29.6	–	31.8	6.37	29.8	–	–	–	–	–	–	–	–	–	–	–
COC(=O)c1c(CC#N)cccc1CC#N	> 100	> 100	> 100	> 100	> 100	> 100	> 100	> 100	> 100	–	–	–	–	–	–	–	–	–	–	–
CCSc1nc(N=Cc2cccs2)c2cn[nH]c2n1	24.9	16.1	–	> 100	> 100	–	> 100	> 100	> 100	10.9	3.31	–	48.5	56	–	19.7	53.5	53.8	10.8	57.2
CC(c1cccc2ccccc12)/[N+]([O-])=C/c1ccccc1 (stereo not drawn)	> 100	> 100	> 100	> 100	> 100	> 100	> 100	> 100	> 100	–	–	–	–	–	–	–	–	–	–	–
C=C1CC[C@@H]2C(C)(C)CCC[C@@]2(C)[C@@H]1Cc1cc(O)ccc1O	31.4	19.2	17.4	3.66	6.04	7.14	23.8	5.25	25.8	–	–	–	–	–	–	–	–	–	–	–
O=C1C(=O)N(c2ccc(Cl)c(Cl)c2)C(=O)C(=O)C1c1nc2ccccc2o1	> 100	> 100	> 100	> 100	> 100	> 100	> 100	> 100	> 100	–	–	–	–	–	–	–	–	–	–	–

Compound	TGI [1] [µM]	TGI [2] [µM]	TGI [3] [µM]	TGI [4] [µM]	TGI [5] [µM]	TGI [6] [µM]	TGI [7] [µM]	TGI [8] [µM]	TGI [9] [µM]	GI50 [1] [µM]	GI50 [2] [µM]	GI50 [3] [µM]	GI50 [4] [µM]	GI50 [5] [µM]	GI50 [6] [µM]	GI50 [7] [µM]	GI50 [8] [µM]	GI50 [9] [µM]	GI50 [10] [µM]	TGI [10] [µM]
COc1ccc2ccc([Se]c3ccc4ccc(OC)cc4c3)cc2c1	> 100	> 100	> 100	> 100	> 100	76.8	> 100	95.8	> 100	–	–	–	–	–	–	–	–	–	–	–
O=S1(=O)C[C@@H](O)[C@H](O)CS1	> 100	> 100	> 100	> 100	> 100	> 100	> 100	> 100	> 100	–	–	–	–	–	–	–	–	–	–	–
CCOP(=O)(OCC)/C(C#N)=C/c1ccco1	> 100	> 100	> 100	> 100	> 100	> 100	> 100	> 100	> 100	–	–	–	–	–	–	–	–	–	–	–
CC[N+](CC)(CC)CCCn1c2c(c3ccccc3c1=O)C(=O)c1ccccc1-2	> 100	> 100	–	21.4	> 100	> 100	> 100	–	–	23.1	4.74	–	4.71	52.6	80	4.24	–	–	18.3	62.6
Cc1cc(S(=O)(=O)Nc2nnc(-c3ccccc3)c(-c3ccccc3)n2)c(SCc2ccccc2)cc1Cl	48	43.1	38.7	53.7	–	49	44.8	73.5	39.6	23.6	18.5	16.9	21.8	–	29.4	20.6	26	22.9	21.7	43.3
CN(c1ccccc1)C(c1ccccc1)C(O)c1ccccc1 (stereo not drawn)	30.1	34.4	31.4	36.9	52.1	64.4	33.2	41.9	38	–	–	–	–	–	–	–	–	–	–	–
COC(=O)c1ccc(N=NN(C)CO)cc1	> 100	> 100	> 100	> 100	> 100	> 100	> 100	> 100	> 100	–	–	–	–	–	–	–	–	–	–	–
CC1NOC(=O)C1N=Nc1ccccc1Cl (stereo not drawn)	> 100	> 100	65.7	34.2	94.4	62.4	> 100	34.5	> 100	–	–	–	–	–	–	–	–	–	–	–
CC(=O)Nc1ccc(C2[C@H]3C(=O)N(c4ccc(Cc5ccc(N6C(=O)[C@@H]7ON(c8ccccc8)C(c8ccc(NC(C)=O)cc8)[C@@H]7C6=O)cc5)cc4)C(=O)[C@H]3ON2c2ccccc2)cc1 (stereo partly drawn)	> 100	> 100	> 100	> 100	> 100	> 100	> 100	> 100	> 100	–	–	–	–	–	–	–	–	–	–	–
CC(=O)OCC1OC(n2c(=O)n(-c3ccccc3)c(=O)c3ccccc32)C(OC(C)=O)C(OC(C)=O)C1OC(C)=O (stereo not drawn)	> 100	> 100	> 100	> 100	> 100	> 100	> 100	> 100	> 100	–	–	–	–	–	–	–	–	–	–	–
COC(=O)C1=C(O)C(O)=C(C(=O)OC)C1	> 100	> 100	> 100	> 100	> 100	> 100	> 100	> 100	> 100	–	–	–	–	–	–	–	–	–	–	–
COC[n+]1cc2cc(OC)c(OC)cc2c2ccc3cc(OC)c(OC)cc3c21	> 100	> 100	> 100	> 100	–	> 100	> 100	> 100	> 100	–	–	–	–	–	–	–	–	–	–	–
COC(=O)C(Nc1ccc(OC)cc1)c1ccccc1 (stereo not drawn)	> 100	> 100	–	> 100	–	–	> 100	> 100	> 100	–	–	–	–	–	–	–	–	–	–	> 100
COC(=O)c1nc(NC#N)[nH]c(=O)c1C	> 100	> 100	> 100	> 100	> 100	> 95.4	> 100	> 84.2	> 100	–	–	–	–	–	–	–	–	–	–	–
CS(=O)c1ccc(COP(N)(=O)N(CCCl)CCCl)cc1 (stereo not drawn)	> 100	> 100	> 100	> 100	> 100	> 100	> 100	> 100	> 100	–	–	–	–	–	–	–	–	–	–	–
COc1ccc(/C=C2/C[N+](C)(C)C/C(=C/c3ccc(OC)cc3)C2=O)cc1	40.8	36.3	61.3	37.9	> 100	> 100	> 100	> 100	> 100	–	–	–	–	–	–	–	–	–	–	–
O=C1OC2(c3ccccc3Oc3ccccc32)c2ccccc21	> 100	> 100	> 100	> 100	> 100	> 100	> 100	> 100	> 100	–	–	–	–	–	–	–	–	–	–	–
[N-]=[N+]=NC1C(Br)C(=O)NC(=O)N1[C@H]1C[C@H](O)[C@@H](CO)O1 (stereo partly drawn)	> 100	> 100	> 100	> 100	> 100	> 100	> 100	> 100	> 100	–	–	15.5	–	–	–	–	–	–	–	–
O=C([CH-]C(=O)c1ccccc1)c1ccccc1.O=C([CH-]C(=O)c1ccccc1)c1ccccc1.[Nd+3].[OH-].[OH3+]	31.4	49.6	53.2	13.3	48.2	7.25	39.8	12.4	18.4	13.9	6.27	12.4	1.42	14.5	2.49	6.89	3.11	3.58	–	–
COc1ccc2[nH]c(Cl)c(/C=C3/C(=O)N(C)c4ccccc43)c2c1	> 100	34.7	> 100	> 100	> 100	–	> 100	> 100	> 100	21.7	16.9	> 100	> 100	77.4	–	96.6	> 100	92	> 100	> 100
